What is called EC50 is the concentration that produces a half-maximal response.

SMILES strings stand for the structures.

From patent EP3597653A1, “CYCLIC INHIBITORS OF HEPATITIS B VIRUS” (IRBM S.P.A., priority 2018, dated 2020) come the findings set out here.

The first experiment concerns HBV. As to the kind of experiment: HBV inhibition assay in HepAD38 cells (extracellular HBV DNA by direct qPCR). To be noted: Hepatitis B virus, 8-point dose-response curve, 96 hours, read-out: HBV inh EC50. Format: cell-based. An excerpt: HepAD38 cell line (Ladner et al., Antimicrob Agents Chemother, 1997, 41, 1715-20) was used for HBV inhibition assays. HepAD38 is a subclone, derived from Hepatoblastoma cell line HepG2 (ATCC® Number: HB-8065™), that expresses HBV genome under the control of a tetracycline-responsive promoter in a TET-OFF system: addition of tetracycline suppresses HBV replication, while its removal switches on the process allowing HBV viral particles release in the cell supernatant. HepAD38 cell line is maintained in DMEM/F12, supplemented with 10% of fetal bovine serum, 1% of glutamine, 1% of penicillin/streptomycin, 0.4 mg/ml G418 and 0,3 ug/ml tetracycline. For the HBV inhibition assay, doxycycline-free medium is used in order to allow virion production.
HBV inhibition activity in vitro was performed in 96 multiwell plates. During the initial (primary) screening compounds were first tested in triplicates at concentrations of 0.1µM, 0.5µM amd 1µM. For selected compounds, an 8-point dose-response curve can be obtained using 1:2 serial dilutions (starting from 2.5 µM, 1.25µM or 0.4 µM, depending on the degree of inhibition observed during the primary screening). From the dose-response curves, half maximal effective concentration (EC50) can be calculated (see also below).
In more detail, compounds - typically dissolved in DMSO stock solutions - are diluted to 2x the final desired concentration in 100 µl of the above medium (without doxycycline) and plated in three replicates in the 96-well plates.
Simultaneously, HepAD38 cells - extensively pre-washed in tetracycline-free medium in order to induce HBV production - are suspended at 2*10^4 cells in 100 µl of tetracycline-free medium and added to each well of the plate, to yield a final assay volume of 200 µl DMSO - used for stock solutions and compounds dilutions - which is always present in the assays at a final concentration of 0.5%.
Plates are then incubated 96 hours at 37°C and then subjected to cell viability assay in order to define compounds cytotoxicity and to extracellular HBV quantification in order to evaluate antiviral activity of compounds. Cytotoxicity is assessed by a commercial fluorescence assay that measures the metabolic activity of cells, directly related to cell viability (Cell Titer Blue, Promega). Anti-HBV activity was evaluated by quantification of extracellular HBV DNA with direct qPCR. In particular, supernatant was collected and centrifuged for cell debris clarification, viral DNA was extracted from virions by addition of lysis buffer (1 mM 1,4-dithiothreitol, 0.2% sodium dodecyl sulphate) and incubated at 95°C for 10 min. Samples were then diluted 1:40 and real time PCR amplification was performed with SYBR green assay (Power SYBR™ Green PCR Master Mix-Thermo Fisher Scientific) and specific HBV primer (HBV-DF:5'-[…]-3' (SEQ ID No. 1), HBV-DR:5'-[…]-3' (SEQ ID No. 2)).
All HBV inhibition or antiviral activity data are typically reported in percent (%) relative to a non-treated reference sample. Excel and Graphpad Prism programs are typically used for data elaboration and EC50 calculation.
For orientation: Quantitative PCR measures a nucleic acid by following its amplification.
On to `Cc1cc(C(=O)Nc2cc(F)c(F)c(F)c2)cc2c1NCNS2(=O)=O` [Example E88, 5-methyl-N-(3,4,5-trifluorophenyl)-3,4-dihydro-2H-benzo[e][1,2,4]thiadiazine-7-carboxamide 1,1-dioxide], for which the EC50 was over 1000 nM.

Regarding `O=C(Nc1cc(F)c(F)c(F)c1)c1cc2c(cc1Cl)NCNS2(=O)=O` [Example E7, 6-chloro-N-(3,4,5-trifluorophenyl)-3,4-dihydro-2H-benzo[e][1,2,4]thiadiazine-7-carboxamide 1,1-dioxide], the EC50 was under 1000 nM.

With `O=C(Nc1cc(F)c(F)c(F)c1)c1ccc2c(c1)S(=O)(=O)N[C@@]1(N2)C(=O)Nc2ccccc21` (single isomer, unassigned) [Example E130], the EC50 is under 1000 nM.

Staying with this experiment, now noted: Hepatitis B virus, compound at 0.5 µM, 96 hours, relative to non-treated reference, read-out: Anti HBV Activity (conc µM).
`O=C(Nc1ccc(F)c(C(F)F)c1)c1ccc2c(c1)S(=O)(=O)N([C@H]1CC[C@H](O)CC1)C(=O)N2` [Example E131, N-(3-(difluoromethyl)-4-fluorophenyl)-2-((1r,4r)-4-hydroxycyclohexyl)-3-oxo-3,4-dihydro-2H-benzo[e][1,2,4]thiadiazine-7-carboxamide 1,1-dioxide]: the inhibition at 0.5 µM is over 50%.

As for `CC1(c2cnccn2)Nc2ccc(C(=O)Nc3cc(F)c(F)c(F)c3)cc2S(=O)(=O)N1` (stereo not shown) [Example E55, 3-methyl-3-(pyrazin-2-yl)-N-(3,4,5-trifluorophenyl)-3,4-dihydro-2H-benzo[e][1,2,4]thiadiazine-7-carboxamide 1,1-dioxide], the inhibition at 0.5 µM is over 50%.

In the case of `C[C@@H](N1C(=O)Nc2ccc(C(=O)Nc3cc(F)c(F)c(F)c3)cc2S1(=O)=O)C(F)(F)F` [Example E77, (R)-3-oxo-N-(3,4,5-trifluorophenyl)-2-(1,1,1-trifluoropropan-2-yl)-3,4-dihydro-2H-benzo[e][1,2,4]thiadiazine-7-carboxamide 1,1-dioxide], the inhibition at 0.5 µM was under 50%.

As to `CC1(C)Nc2ccc(C(=O)Nc3cc(F)c(F)c(F)c3)cc2S(=O)(=O)N1` [Example E27, 3,3-dimethyl-N-(3,4,5-trifluorophenyl)-3,4-dihydro-2H-benzo[e][1,2,4]thiadiazine-7-carboxamide 1,1-dioxide], the inhibition at 0.5 µM was over 50%.

Regarding `CC(C)(C)OC(=O)N1CC[C@H](N2C(=O)Nc3ccc(C(=O)Nc4cc(F)c(F)c(F)c4)cc3S2(=O)=O)C1` [Example E83, tert-butyl (S)-3-(1,1-dioxido-3-oxo-7-((3,4,5-trifluorophenyl)carbamoyl)-3,4-dihydro-2H-benzo[e][1,2,4]thiadiazin-2-yl)pyrrolidine-1-carboxylate], the inhibition at 0.5 µM was under 50%.

As to `O=C(Nc1cc(F)c(F)c(F)c1)c1ccc2c(c1)S(=O)(=O)N(C1CC(O)C1)C(=O)N2` (stereo not shown) [Example E86, 2-(3-hydroxycyclobutyl)-3-oxo-N-(3,4,5-trifluorophenyl)-3,4-dihydro-2H-benzo[e][1,2,4]thiadiazine-7-carboxamide 1,1-dioxide], the inhibition at 0.5 µM is over 50%.

Consider `O=C(Nc1ccc(Cl)nc1)c1ccc2c(c1)S(=O)(=O)NCN2` [Example E92, N-(6-chloropyridin-3-yl)-3,4-dihydro-2H-benzo[e][1,2,4]thiadiazine-7-carboxamide 1,1-dioxide], for which the inhibition at 0.5 µM is under 50%.

As for `C[C@@H](O)C1Nc2ccc(C(=O)Nc3cc(F)c(F)c(F)c3)cc2S(=O)(=O)N1` (stereo partly drawn) [Example E24, 3-((R)-1-hydroxyethyl)-N-(3,4,5-trifluorophenyl)-3,4-dihydro-2H-benzo[e][1,2,4]thiadiazine-7-carboxamide 1,1-dioxide], the inhibition at 0.5 µM is over 50%.

Regarding `O=C(Nc1cc(F)c(F)c(F)c1)c1ccc2c(c1)S(=O)(=O)NC([C@@H](O)CO)N2` (stereo partly drawn) [Example E26, 3-((R)-1,2-dihydroxyethyl)-N-(3,4,5-trifluorophenyl)-3,4-dihydro-2H-benzo[e][1,2,4]thiadiazine-7-carboxamide 1,1-dioxide], the inhibition at 0.5 µM was over 50%.

The same experiment, now with this note: Hepatitis B virus, compound at 1 µM, 96 hours, relative to non-treated reference, read-out: Anti HBV Activity (conc µM).
Turning to `Cc1nc(C)c(C2Nc3ccc(C(=O)Nc4ccc(F)c(F)c4)cc3S(=O)(=O)N2)o1` (stereo not shown) [Example E38, N-(3,4-difluorophenyl)-3-(2,4-dimethyloxazol-5-yl)-3,4-dihydro-2H-benzo[e][1,2,4]thiadiazine-7-carboxamide 1,1-dioxide], the inhibition at 1 µM was over 50%.

For the compound `CC1(c2ccc(Cl)cn2)Nc2ccc(C(=O)Nc3cc(F)c(F)c(F)c3)cc2S(=O)(=O)N1` (stereo not shown) [Example E53, 3-(5-chloropyridin-2-yl)-3-methyl-N-(3,4,5-trifluorophenyl)-3,4-dihydro-2H-benzo[e][1,2,4]thiadiazine-7-carboxamide 1,1-dioxide], the inhibition at 1 µM is over 50%.

On to `CC1Nc2ccc(C(=O)Nc3cc(F)c(F)c(F)c3)cc2S(=O)(=O)N1CCO` (stereo not shown) [Example E63, 2-(2-hydroxyethyl)-3-methyl-N-(3,4,5-trifluorophenyl)-3,4-dihydro-2H-benzo[e][1,2,4]thiadiazine-7-carboxamide 1,1-dioxide], for which the inhibition at 1 µM is under 50%.

`O=C(Nc1ccc(F)c(F)c1)c1ccc2c(c1)S(=O)(=O)NC(c1nccs1)N2` (stereo not shown) [Example E50, N-(3,4-difluorophenyl)-3-(thiazol-2-yl)-3,4-dihydro-2H-benzo[e][1,2,4]thiadiazine-7-carboxamide 1,1-dioxide]: the inhibition at 1 µM was over 50%.

As to `O=C(Nc1cc(F)c(F)c(F)c1)c1cc2c(cc1F)N=CNS2(=O)=O` [Example E68, 6-fluoro-N-(3,4,5-trifluorophenyl)-2H-benzo[e][1,2,4]thiadiazine-7-carboxamide 1,1-dioxide], the inhibition at 1 µM was under 50%.

On to `O=C(Nc1cc(F)c(F)c(F)c1)c1ccc2c(c1)S(=O)(=O)N1CC(C1)O2` [Example E117, N-(3,4,5-trifluorophenyl)-3,4-dihydro-2,4-methanobenzo[b][1,4,5]oxathiazepine-8-carboxamide 1,1-dioxide], for which the inhibition at 1 µM is under 50%.

In the case of `O=C(Nc1ccc(F)c(F)c1)c1ccc2c(c1)S(=O)(=O)NC1(CCC1)N2` [Example E12, N-(3,4-difluorophenyl)-2H,4H-spiro[benzo[e] [1,2,4]thiadiazine-3,1'-cyclobutane]-7-carboxamide 1,1-dioxide], the inhibition at 1 µM is over 50%.

As to `O=C1Nc2ccc(C(=O)Nc3cc(F)c(F)c(F)c3)cc2S(=O)(=O)N1` [Example E75, 3-oxo-N-(3,4,5-trifluorophenyl)-3,4-dihydro-2H-benzo[e][1,2,4]thiadiazine-7-carboxamide 1,1-dioxide], the inhibition at 1 µM is under 50%.

Take `O=C(Nc1cc(F)c(F)c(F)c1)c1ccc2c(c1)S(=O)(=O)N1CCCC[C@H]1CN2` [Example E103, (S)-N-(3,4,5-trifluorophenyl)-1,3,4,11,12,12a-hexahydro-2H-benzo[f]pyrido[1,2-b][1,2,5]thiadiazepine-8-carboxamide 6,6-dioxide]: the inhibition at 1 µM was under 50%.

`O=C(Nc1cc(F)c(F)c(F)c1)c1ccc2c(c1)S(=O)(=O)NC(c1cncs1)N2` (stereo not shown) [Example E40, 3-(thiazol-5-yl)-N-(3,4,5-trifluorophenyl)-3,4-dihydro-2H-benzo[e][1,2,4]thiadiazine-7-carboxamide 1,1-dioxide]: the inhibition at 1 µM was over 50%.

On to `O=C(Nc1cc(F)c(F)c(F)c1)c1cc2c(cc1Br)NCNS2(=O)=O` [Example E8, 6-bromo-N-(3,4,5-trifluorophenyl)-3,4-dihydro-2H-benzo[e][1,2,4]thiadiazine-7-carboxamide 1,1-dioxide], for which the inhibition at 1 µM was over 50%.

As for `CN1C=NS(=O)(=O)c2cc(C(=O)Nc3cc(F)c(F)c(F)c3)c(F)cc21` [Example E73, 6-fluoro-4-methyl-N-(3,4,5-trifluorophenyl)-4H-benzo[e][1,2,4]thiadiazine-7-carboxamide 1,1-dioxide], the inhibition at 1 µM was under 50%.

As to `O=C(Nc1cc(F)c(F)c(F)c1)c1ccc2c(c1)S(=O)(=O)NC1(CCOCC1)N2` [Example E13, N-(3,4,5-trifluorophenyl)-2',3',5',6'-tetrahydro-2H,4H-spiro[benzo[e] [1,2,4]thiadiazine-3,4'-pyran]-7-carboxamide1,1-dioxide], the inhibition at 1 µM is over 50%.
